The results in this text go back to a melting point compilation (Tetko et al.; mined from patent text by program, amines drawn as free bases though some values may be those of a salt).

Where only a bound is given, the exact number is not on record here.

Regarding `O=C(c1ccncc1)[N+]1([O-])CCC(C(O)(c2ccc(Cl)cc2)c2nccs2)CC1` (stereo not drawn), the melting point (usually the temperature, or range, at which the solid turns liquid) was 215 to 217 °C.
On to `CC1(CCN2C(=O)c3cccc([N+](=O)[O-])c3C2=O)OCCO1`, for which the melting point was 90 °C.
Under `CN1CC=C(C(=O)N2c3ccccc3NC(=O)c3ccccc32)CC1` stands 233 to 234 °C.
Under `Cc1cc2cc(CN3CCCC3)cnc2cc1NC(=O)c1ccc(-c2ccc(Cl)cc2)c(F)c1` stands 181 to 185 °C.
Under `COc1cc(-c2nc(N)nn2CCC2CCCCC2)c(OC)cc1C` stands 136 to 137 °C; under `CCNc1cccc(NC(=O)COC)c1C#N`, 118 to 119 °C; under `CC(C)[C@H](NC(=O)OCc1ccccc1)[C@H](O)C(F)(F)F`, 103 to 104 °C.
For `COc1ccc(-c2nn(Cc3cccnc3)c(=O)cc2-c2ccncc2)cc1`, the melting point turned out to be 162 °C.
Under `CCOC(=O)c1c(CN(CC)CC)nc2cc(OC)c(OC)cc2c1-c1ccc(OC)cc1` stands 118 to 119 °C; under `C=CC[C@H](C(N)=O)[C@@H](CC(C)C)C(=O)NC1N=C(N(C)c2ccccc2)c2ccccc2N(C)C1=O` (stereo partly drawn), 267 to 268 °C; under `Cc1nc2cccc3n(CCCNS(=O)(=O)C(F)(F)F)c(=O)c1n23`, 168 to 169 °C.
Under `CC(C)(C)c1cc(C(=NN)c2ccccc2)cc(C(C)(C)C)c1O` stands 97.4 to 117 °C.
In the case of `CCCCNc1nnc(NCCCC)c2cc3c(OC)cccc3cc12`, the melting point was in the range of 178 to 180 °C.
On to `COc1ccc2c(c1)c(CC(=O)OC(C)(C)C)c(C)n2C(=O)c1ccc(Cl)cc1`, for which the melting point was in the range of 103 to 104 °C.
`CC#CC(Cc1ccccc1)n1nnc2cc3c(cc2c1=O)OC1CCCN1C3=O` (stereo not drawn) showed a melting point of 160 to 162 °C.
Regarding `O=[N+]([O-])c1cc(-c2nnc(Cl)cc2O)ccc1Cl`, the melting point was in the range of 204 to 209 °C.
For `Cc1ncccc1Oc1ccc(C(=N)Nc2cc(Cl)cc(NC(=O)C=Cc3ccccc3Cl)c2)cc1` the value was 105 to 107 °C.
For `Fc1ccc2[nH]cc(C3=CCN(CC4COc5cccnc5O4)CC3)c2c1` (stereo not drawn) the value was 124 °C; for `O=C(O)c1ncn2c1c(=O)[nH]c1ccccc12`, more than 300 °C; for `O=CNc1nc(OCOC(=O)C2CCCC2)ncc1F`, 76 to 79 °C.
`CC(=O)c1cccc(C(=O)Nc2c[nH]nc2C(=O)NCCC#N)c1` registered a melting point of 205 to 208 °C.
Under `COc1ccc2nc3ccc(OC)cc3c(C(=O)Oc3c(Br)cccc3Br)c2c1` stands 245 to 247 °C.
In turn, `CC(C)(C)c1cc(N(C(=O)CCC(=O)O)c2cccc(C(=O)O)c2)cc(C(C)(C)C)c1O` came in with a melting point of 182 to 183 °C.
Under `O=C(c1cccc2cc[nH]c12)N1CCN(c2ncccn2)CC1` stands 194 to 197 °C; under `COC(=O)c1ccc(N)cc1O`, 118 to 120 °C.
For `CCC(O)(CC(=O)OC(C)(C)C)c1cc2n(c(=O)c1COC(C)=O)Cc1cc3ccccc3nc1-2` (stereo not drawn) the value was 195 to 196 °C.
`O=c1c2cc(F)c(N3CCCC3)cc2n(Cc2ccccc2)c(=O)n1O`: the melting point was 234 to 236 °C.
`CCNc1cccc2c(S(=O)(=O)Nc3ncc(Br)nc3OC)cccc12` returned a melting point of 216 to 218 °C.
Regarding `O=C(O)c1c2c(nc3ccc(F)cc13)-c1ccc(-c3ccccc3F)cc1CCCC2`, the melting point was more than 300 °C.
As to `COCCCCC(O)(c1ccccc1)c1ccccc1`, the melting point lay within 112 to 115 °C.
`COC[C@H]1CN(c2noc3cc(OS(=O)(=O)C(F)(F)F)ccc23)C(=O)O1`: the melting point was 94 °C.
For `COCCCCCCOc1ccc(C#Cc2ccc(C(=O)O)cc2)cc1C12CC3CC(CC(C3)C1)C2` the value was 241 to 242 °C; for `N#Cc1cnn2c(-c3ccncc3)ccnc12`, 137 to 138 °C; for `COc1cc(N(C)C)cc(CN(C)CCc2ccc(N=C(N)c3cccs3)cc2)c1O`, 91 to 93 °C.
Under `NC1CCCN(c2ncc3ncnc(Nc4ccc(F)c(Cl)c4)c3n2)CC1` (stereo not drawn) stands 122 to 124 °C; under `C=CCn1c(=O)n(CCCN2CCC3(CC2)C(=O)NCN3c2ccccc2)c2ccccc21`, 198 °C.
For `CCOCc1cc2ccccc2oc1=Nc1ccc(F)cc1` the value was 84 to 86 °C; for `Cc1cc(-n2ccc(OCc3ccccc3)cc2=O)oc1C(=O)NCc1ccccc1`, 191 to 192 °C.
The compound `COc1ccc(C(=O)Nc2ccccc2)cc1NCc1ccc(F)cc1` gave a melting point of 165 to 167 °C.
As to `Nc1ccc2ccc(OCc3ccc4ccccc4n3)cc2c1`, the melting point was in the range of 164 to 166 °C.
In the case of `N#CCCCCCCNCc1ccc(O)cc1`, the melting point lay in the range of 42 to 44.5 °C.
`COc1ncc(Cl)c(C)c1Br` returned a melting point of 44 to 45 °C.
For the compound `CCCCC(=O)c1c(-c2ccncc2)[nH]c(-c2ccncc2)c1C`, the melting point lay in the range of 88 to 89 °C.
For `N=C(OCC1CC1)N1Cc2ccccc2-c2ccccc2C1` the value was 80 to 83 °C.
Compound `CC1(C)Cc2c(c(N3CCCC3)nc3sc4c(NCc5ccc(S(C)(=O)=O)cc5)ncnc4c23)CO1` displayed a melting point of 324 to 326 °C.
In turn, `Nc1cccc(Oc2cccc(Oc3cccc(N)c3)n2)c1` came in with a melting point of 118 to 120 °C.
Under `CNC(=O)c1ccc(-c2ccc3nnn(C(C)(C)c4ccc5ncccc5c4)c3n2)cc1F` stands 171 to 173 °C.
Under `Cc1ccc(Oc2ccccc2C(=N)NN)c(O)c1` stands more than 260 °C; under `Nc1cc2c(Nc3ccc(F)c(Cl)c3)ncnc2cc1OCC1CC1`, 208 °C; under `CCCC(=O)NN=C(c1ccc(Cl)cc1)c1ccc(OC(F)F)cc1`, 114 to 125 °C.
Under `NS(=O)(=O)c1ccc(-c2cscc2-c2ccccc2)cc1F` stands 171 °C.
On to `CC(CSC(=S)N(C)C)[N+](=O)[O-]` (stereo not drawn), for which the melting point lay in the range of 38.5 to 41 °C.
`CN1OC(c2ccc(Cl)cc2)CC1(Cn1ccnc1)c1ccco1` (stereo not drawn) registered a melting point of 99 to 101 °C.
Under `CC(=O)OC1C(N2CCCC2)CC2C3CCC4CC(O)C(N5CCOCC5)CC4(C)C3CCC21C` (stereo not drawn) stands 149 to 153 °C; under `CCOC(=O)OC1=C(c2c(C)cc(C)cc2C)C(=O)N(N(C)C)C12CCN(OC)CC2`, 116 to 119 °C.
Under `COc1cc(C=CC(=O)Nc2cnc3c(C)cc(C)cc3c2-c2ccccc2Cl)cc(OC)c1OC` stands 198 to 200 °C; under `Cc1nc2cccc3n(CCCCCNS(=O)(=O)C(F)(F)F)c(=O)c1n23`, 149 to 150 °C; under `CN(CCNC(=O)NCCCOc1cccc(CN2CCCCC2)c1)CCC(c1ccc(F)cc1)c1ccccn1` (stereo not drawn), 111 to 115 °C.
Consider `CN(C)c1ccc(-c2cccc3c2C2(COc4cc5c(cc42)CCO5)C(=O)N3Cc2ccc(C(F)(F)F)o2)cn1` (stereo not drawn), for which the melting point fell in the range of 223 to 225 °C.
Under `CC1(C)C(=O)N(c2ccc(C#N)c(C(F)(F)F)c2)C(=O)N1CCCCCl` stands 80 to 81 °C.
Under `COc1cc2ncnc(N3CCN(C(=S)NCc4ccc(C(F)(F)F)cc4)CC3)c2cc1OC` stands 216 to 217 °C; under `O=C1N[C@H](Cc2ccc(C(F)(F)F)c(F)c2)[C@H](c2ccc(F)cc2)O1` (racemic), 122 to 123 °C; under `COc1nc(OC)c(C(C)C)c(C(C#N)c2cc(C)cc(Cl)c2)n1` (stereo not drawn), 105 to 106 °C.
For `Cc1c(N2CC(F)[C@](C)(N)C2)c(F)cc2c(=O)c(C(=O)O)cn([C@@H]3C[C@@H]3F)c12` (stereo partly drawn) the value was 215 to 217 °C; for `CCCCc1nc(Cl)c(CO)n1Cc1ccccc1Cl`, 134 to 135 °C.
Turning to `Nc1ccc(CN2CCSC2)cc1`, the melting point was in the range of 73 to 74 °C.
For `CC(C)(C)c1ccccc1N1CCN(C(=O)CCC#N)CC1`, the melting point fell in the range of 109 to 110 °C.
Under `CCOC(=O)N1CC[C@@H](N)[C@H](O)C1` (relative stereo) stands 76.9 °C; under `O=C1CC(c2ccc(O)cc2O)Oc2cc(O)cc(O)c21` (stereo not drawn), 258 to 259 °C; under `COc1ccc(-c2cc(=Nc3c(C)cc(C)cc3C)n(C)c(=O)n2C)cc1OC`, 68 to 70 °C.
Under `CCCCCCCCCCC[C@H](CC(=O)N[C@@H](CO)C(=O)OCc1ccccc1)OC(=O)CCCCCCCCCC` stands 53 to 54 °C; under `COc1cc(OC)cc(OC(=S)N(C)C)c1`, 77 to 78 °C.
On to `CC(C)COC(=O)Nc1cc(Cl)cc(Cl)c1`, for which the melting point was 75 °C.
For `CS(=O)(=O)NCCCOS(C)(=O)=O` the value was 53.5 to 55.5 °C.
With `Cc1noc2c(Oc3ncccc3C(=O)NCC3CCC(C(C)(C)O)CC3)cccc12` (stereo not drawn), the melting point was 170 to 172 °C.
For `COC(=O)C(Cc1ccccc1)Nc1nnc(N)s1` (stereo not drawn) the value was 186 to 189 °C; for `O=C(/C=C/c1ccc(O)cc1)C(F)(F)F`, 106 to 107 °C.
The compound `NS(=O)(=O)c1ccccc1S(=O)Cc1ccccc1` (stereo not drawn) came in with a melting point of 206 to 209 °C.
Under `CCSc1nc(N)nc2c1ncn2C1C=CC(CO)C1` (stereo not drawn) stands 123 to 125 °C.
For `O=P(Oc1ccc2ccccc2c1)(Oc1ccc2ccccc2c1)Oc1ccc2ccccc2c1` the value was 110 to 111 °C; for `CC12CCC3C(CC(O)C4(O)CC=CCC34C)C1CCC2=O` (stereo not drawn), 183 to 186 °C; for `COc1cc(C)cc(S(=O)(=O)c2cccc(F)c2C#N)c1`, 160 to 162 °C.
Under `CCCCN(CCCC)S(=O)(=O)c1ccc(Cl)c([N+](=O)[O-])c1` stands 67 to 68 °C.
On to `N#Cc1c(F)cccc1-c1ccccc1`, for which the melting point was 78 to 79 °C.
For `CC(C)(C)OC(=O)N[C@@H](Cc1ccccc1)[C@H](C#N)OC(=O)c1ccc(-c2ccccn2)cc1` the value was 140 to 141 °C.
The compound `Cc1c(-c2cnccn2)sc2nc(N)[nH]c(=O)c12` returned a melting point of 280 to 300 °C.
`ICCOc1ccc(C2=C(c3ccccc3)CCCc3cc(OC4CCCCO4)ccc32)cc1` (stereo not drawn) displayed a melting point of 165 to 166 °C.
For `Cc1ccccc1C=C1CCc2c1oc1ccc(C#N)cc1c2=O` the value was 260 to 262 °C.
